Consider 5 molecules from PMC8400955 (Pharmaceuticals, 2021).

One data set concerns CYP2B6. The experiment in a line: CYP induction (enzyme activity) in cryopreserved human hepatocytes, CYP2B6. The conditions noted are these: for fold induction at 72 h, 1000 µM / fold induction at 72 h, 30 µM: human, plated cryopreserved human hepatocytes; for Percent of Control / fold induction at 72 h, 30 µM: 30 µM.
The subject of a further data set is CYP3A4. Description: CYP induction (enzyme activity) in cryopreserved human hepatocytes, CYP3A4. The data set is classed as in vitro ADME. As to conditions: 30 µM; for fold induction at 72 h, 30 µM: human, plated cryopreserved human hepatocytes.
A further data set concerns CYP1A2. Description: CYP induction (enzyme activity) in cryopreserved human hepatocytes, CYP1A2. The conditions noted are these: for Percent of Control / fold induction at 72 h, 30 µM: 30 µM; for fold induction at 72 h, 30 µM / fold induction at 72 h, 50 µM: human, plated cryopreserved human hepatocytes.
A short description of data set [1]: Bidirectional permeability across Caco-2 cell monolayers. The data set is classed as in vitro ADME. As to conditions: human; for recovery at 120 min, 5 μM: Caco-2, Caco-2, 5 μM; for Papp A→B at 120 min, 5 μM / Papp B→A at 120 min, 5 μM / efflux ratio at 120 min, 5 μM: Caco-2, 5 μM. As for the experimental part: The bidirectional permeability and absorption mechanism of ZB716 was evaluated across Caco-2 cell monolayers.
The apical-to-basolateral (A–B) and basolateral-to-apical (B–A) transport of ZB716 in HBSS (25 mM HEPES) with 1% BSA was measured across Caco-2 cell monolayers. […] All incubations were performed in triplicate, and the integrity of the cell monolayers was confirmed using the marker Lucifer yellow.
The slope, k, was determined by linear
using the following equation: […]
1.4 Intestinal Mucosal Permeation of ZB716
Papp= VAArea х timeх ሾdrugሿreceiverሾdrugሿinitial,donor

Read-outs that look alike come from different tables or passages of the source.

Procedure for CYP1A2: (§1) The UPLC–MS/MS (SHIMADZU, LC-30AD) equipped with waters Xselect®HSS T3 2.5 μm (2.1 × 50 mm) was used to detect the marker metabolites in the enzyme activity assay. The fold-induction enzyme activity was determined using the ratio calculation (the calculation details are available in the Supplementary Materials).
(§2) CYP activity was expressed as pmol/min/million cells where pmol was defined as the amount of metabolite formed during the reaction. […] The fold-induction enzyme activity was determined by the ratio:
(§3) Fold of induction = CYP activity(induced) / CYP activity(vehicle)
(§4) % of positive control = (𝑪𝒀𝑷 𝒂𝒄𝒕𝒊𝒗𝒊𝒕𝒚(𝒊𝒏𝒅𝒖𝒄𝒆𝒅)ି 𝑪𝒀𝑷 𝒂𝒄𝒕𝒊𝒗𝒊𝒕𝒚(𝑫𝑴𝑺𝑶))(𝑪𝒀𝑷 𝒂𝒄𝒕𝒊𝒗𝒊𝒕𝒚(𝒑𝒐𝒔𝒊𝒕𝒊𝒗𝒆 𝒄𝒐𝒏𝒕𝒓𝒐𝒍)ି 𝑪𝒀𝑷 𝒂𝒄𝒕𝒊𝒗𝒊𝒕𝒚(𝑫𝑴𝑺𝑶))х 𝟏𝟎𝟎 Based on the enzyme activity, a minimum of 2-fold increase of a response compared to vehicle control and ≥ 20% of the positive control was considered as the cutoff for a positive signal in in vitro induction
Procedure for CYP2B6: as §1, §2, §3, §4

Take `CCC1(c2ccccc2)C(=O)NC(=O)NC1=O` [Phenobarbital, phenobarbital, reference compound]: the fold induction at 72 h, 1000 µM in the data set with CYP2B6 (donor one) came out at 5.44 ± 0.13; with CYP2B6 (donor three), 6.29 ± 0.9; in the data set with CYP2B6 (donor two) it was 6.86 ± 0.36.

With `CCOC(=O)c1ncn2c1CN(C)C(=O)c1cc(F)ccc1-2` [Flumazenil, flumazenil, reference compound], the “Percent of Control” value in the data set on CYP3A4 (donor one) is listed as 1.16%; in the data set on CYP3A4 (donor three), 3.11%; with CYP3A4 (donor two), 4.37%; with CYP2B6 (donor one), 3.77%; in the data set on CYP2B6 (donor three) it was 5.23%; in the data set with CYP2B6 (donor two) it was −3.61%. Moreover, the “Percent of Control” value in the data set with CYP1A2 (donor one) is −2.20%; in the data set with CYP1A2 (donor three) it was −3.60%; in the data set with CYP1A2 (donor two) it was 0.450%. Also, the fold induction at 72 h, 30 µM in the data set on CYP3A4 (donor one) was 1.06 ± 0.09; with CYP3A4 (donor three), 1.23 ± 0.09; in the data set with CYP3A4 (donor two) it was 1.39 ± 0.04; with CYP2B6 (donor one), 1.17 ± 0.04; in the data set on CYP2B6 (donor three), 1.28 ± 0.2; in the data set on CYP2B6 (donor two), 0.789 ± 0.07. Besides, the fold induction at 72 h, 30 µM in the data set with CYP1A2 (donor one) turned out to be 0.818 ± 0.032; in the data set on CYP1A2 (donor three), 0.807 ± 0.177; with CYP1A2 (donor two), 1.06 ± 0.11.

For `C[C@H]1O[C@@H](O[C@H]2[C@@H](O)C[C@H](O[C@H]3[C@@H](O)C[C@H](O[C@H]4CC[C@@]5(C)[C@H](CC[C@@H]6[C@@H]5C[C@@H](O)[C@]5(C)[C@@H](C7=CC(=O)OC7)CC[C@]65O)C4)O[C@@H]3C)O[C@@H]2C)C[C@H](O)[C@@H]1O` [Digoxin, digoxin, reference compound], the recovery at 120 min, 5 μM in data set [1] (read-out: Recovery A to B) stood at 92.4 ± 1%. Besides, in data set [1] (read-out: Recovery B to A), the recovery at 120 min, 5 μM was 86 ± 6%. For the same molecule, in data set [1], the Papp A→B at 120 min, 5 μM is 0.687 ± 0.088 ×10⁻⁶ cm/s; the Papp B→A at 120 min, 5 μM came out at 14.5 ± 1.68 ×10⁻⁶ cm/s; the efflux ratio at 120 min, 5 μM was 21.2 ± 2.

Consider `Nc1cc(N2CCCCC2)nc(N)[n+]1[O-]` [Minoxidil, minoxidil, reference compound], for which the recovery at 120 min, 5 μM in data set [1] (read-out: Recovery A to B) is 91 ± 1.4%. Also, the recovery at 120 min, 5 μM in data set [1] (read-out: Recovery B to A) is 94.4 ± 48%. In data set [1], the Papp A→B at 120 min, 5 μM was 6.47 ± 0.22 ×10⁻⁶ cm/s; the Papp B→A at 120 min, 5 μM came to 7.44 ± 0.47 ×10⁻⁶ cm/s; the efflux ratio at 120 min, 5 μM was 1.15 ± 0.09.

As to `COc1ccc2[nH]c([S+]([O-])Cc3ncc(C)c(OC)c3C)nc2c1` (stereo not shown) [Omeprazole, omeprazole, reference compound], the fold induction at 72 h, 50 µM with CYP1A2 (donor one) is 9.28 ± 0.223; in the data set with CYP1A2 (donor three), 6.37 ± 0.14; in the data set with CYP1A2 (donor two), 15 ± 1.8.
